What was measured:
[1] = biological target: 5-hydroxytryptamine 1D receptor (Bos taurus, UniProt Q8MI13)
[2] = biological target: T1, Alpha-1A adrenergic receptor (Rattus norvegicus, UniProt P43140)
T1 sequence (P43140 whole entry): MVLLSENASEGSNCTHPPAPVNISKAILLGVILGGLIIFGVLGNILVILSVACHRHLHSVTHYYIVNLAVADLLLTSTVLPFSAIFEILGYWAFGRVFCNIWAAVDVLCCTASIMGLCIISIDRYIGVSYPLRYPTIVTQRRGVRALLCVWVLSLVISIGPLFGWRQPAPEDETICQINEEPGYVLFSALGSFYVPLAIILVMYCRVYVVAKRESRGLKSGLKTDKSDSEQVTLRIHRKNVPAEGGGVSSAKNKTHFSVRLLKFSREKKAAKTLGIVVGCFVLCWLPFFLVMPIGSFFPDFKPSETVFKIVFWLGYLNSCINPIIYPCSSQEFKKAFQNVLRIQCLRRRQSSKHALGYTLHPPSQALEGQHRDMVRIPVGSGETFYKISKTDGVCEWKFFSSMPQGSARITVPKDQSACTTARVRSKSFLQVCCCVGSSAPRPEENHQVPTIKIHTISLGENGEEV

[3] = biological target: Sodium channel protein type 10 subunit alpha (Rattus norvegicus, UniProt Q62968)
Sequence of Sodium channel protein type 10 subunit alpha (Q62968 whole entry): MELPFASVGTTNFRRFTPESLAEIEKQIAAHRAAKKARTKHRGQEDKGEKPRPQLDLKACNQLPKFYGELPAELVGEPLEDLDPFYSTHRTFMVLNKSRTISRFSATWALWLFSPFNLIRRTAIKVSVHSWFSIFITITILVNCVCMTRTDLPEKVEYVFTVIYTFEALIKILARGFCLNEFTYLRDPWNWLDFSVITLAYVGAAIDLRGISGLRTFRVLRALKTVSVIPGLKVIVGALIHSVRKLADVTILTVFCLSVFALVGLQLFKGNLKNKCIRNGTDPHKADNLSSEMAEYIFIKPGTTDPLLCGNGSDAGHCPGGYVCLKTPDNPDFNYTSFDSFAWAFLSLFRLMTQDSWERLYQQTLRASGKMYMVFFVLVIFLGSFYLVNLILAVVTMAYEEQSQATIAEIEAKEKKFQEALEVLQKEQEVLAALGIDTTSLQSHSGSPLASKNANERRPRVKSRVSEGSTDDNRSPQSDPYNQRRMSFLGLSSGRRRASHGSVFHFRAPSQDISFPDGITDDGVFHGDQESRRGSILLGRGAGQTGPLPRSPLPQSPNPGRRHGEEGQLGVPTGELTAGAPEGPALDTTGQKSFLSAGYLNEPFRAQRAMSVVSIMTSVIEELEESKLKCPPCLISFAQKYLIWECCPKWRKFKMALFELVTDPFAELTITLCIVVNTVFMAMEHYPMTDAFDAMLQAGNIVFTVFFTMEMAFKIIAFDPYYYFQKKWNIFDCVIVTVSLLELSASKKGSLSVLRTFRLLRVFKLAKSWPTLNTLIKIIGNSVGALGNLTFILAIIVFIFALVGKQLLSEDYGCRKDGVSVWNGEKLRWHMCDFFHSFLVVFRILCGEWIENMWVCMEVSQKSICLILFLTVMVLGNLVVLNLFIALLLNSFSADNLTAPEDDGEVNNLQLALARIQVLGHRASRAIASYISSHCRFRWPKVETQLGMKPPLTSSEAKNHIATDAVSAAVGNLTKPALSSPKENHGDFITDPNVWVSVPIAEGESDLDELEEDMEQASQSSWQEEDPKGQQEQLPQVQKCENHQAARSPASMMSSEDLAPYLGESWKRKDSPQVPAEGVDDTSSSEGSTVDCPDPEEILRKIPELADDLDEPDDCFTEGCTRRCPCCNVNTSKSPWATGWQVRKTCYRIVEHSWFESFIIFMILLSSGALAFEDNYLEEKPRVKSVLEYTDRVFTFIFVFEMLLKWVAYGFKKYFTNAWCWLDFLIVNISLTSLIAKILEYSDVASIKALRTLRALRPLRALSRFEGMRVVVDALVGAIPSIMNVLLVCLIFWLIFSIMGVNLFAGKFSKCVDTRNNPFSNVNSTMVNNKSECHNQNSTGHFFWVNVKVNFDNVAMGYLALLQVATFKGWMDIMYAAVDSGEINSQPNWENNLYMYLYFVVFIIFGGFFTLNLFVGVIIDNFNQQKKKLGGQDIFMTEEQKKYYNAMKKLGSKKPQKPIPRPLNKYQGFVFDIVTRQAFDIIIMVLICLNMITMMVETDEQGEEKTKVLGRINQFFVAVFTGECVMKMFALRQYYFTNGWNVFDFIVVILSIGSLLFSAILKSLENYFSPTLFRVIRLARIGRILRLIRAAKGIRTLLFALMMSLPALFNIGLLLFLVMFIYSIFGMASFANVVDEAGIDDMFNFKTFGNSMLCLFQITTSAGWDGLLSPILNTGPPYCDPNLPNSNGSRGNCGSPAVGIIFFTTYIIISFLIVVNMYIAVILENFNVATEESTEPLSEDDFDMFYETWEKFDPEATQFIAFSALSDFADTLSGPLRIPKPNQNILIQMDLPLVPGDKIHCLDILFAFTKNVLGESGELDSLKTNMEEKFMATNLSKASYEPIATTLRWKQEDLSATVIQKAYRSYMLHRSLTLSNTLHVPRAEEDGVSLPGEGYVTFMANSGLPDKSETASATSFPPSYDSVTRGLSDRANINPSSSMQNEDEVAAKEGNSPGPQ

Histamine H1 receptor = Histamine H1 receptor (Rattus norvegicus, UniProt P31390)
Sequence of Histamine H1 receptor (P31390 whole entry): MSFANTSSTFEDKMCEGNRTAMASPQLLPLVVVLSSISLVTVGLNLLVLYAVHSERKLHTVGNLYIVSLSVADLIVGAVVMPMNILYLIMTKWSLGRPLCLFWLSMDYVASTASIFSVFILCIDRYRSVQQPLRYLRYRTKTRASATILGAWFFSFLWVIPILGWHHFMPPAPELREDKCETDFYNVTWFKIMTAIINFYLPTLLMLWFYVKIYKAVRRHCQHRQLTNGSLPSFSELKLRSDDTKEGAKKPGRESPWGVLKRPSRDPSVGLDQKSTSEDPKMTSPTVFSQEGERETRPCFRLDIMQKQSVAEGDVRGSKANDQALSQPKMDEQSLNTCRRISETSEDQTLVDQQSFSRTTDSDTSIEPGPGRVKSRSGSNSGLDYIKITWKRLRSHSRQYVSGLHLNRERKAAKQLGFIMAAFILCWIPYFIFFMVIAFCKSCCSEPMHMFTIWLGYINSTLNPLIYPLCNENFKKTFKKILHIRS

[4] = biological target: 5-hydroxytryptamine receptor 2A (Rattus norvegicus, UniProt P14842)
Sequence of 5-hydroxytryptamine receptor 2A (P14842 whole entry): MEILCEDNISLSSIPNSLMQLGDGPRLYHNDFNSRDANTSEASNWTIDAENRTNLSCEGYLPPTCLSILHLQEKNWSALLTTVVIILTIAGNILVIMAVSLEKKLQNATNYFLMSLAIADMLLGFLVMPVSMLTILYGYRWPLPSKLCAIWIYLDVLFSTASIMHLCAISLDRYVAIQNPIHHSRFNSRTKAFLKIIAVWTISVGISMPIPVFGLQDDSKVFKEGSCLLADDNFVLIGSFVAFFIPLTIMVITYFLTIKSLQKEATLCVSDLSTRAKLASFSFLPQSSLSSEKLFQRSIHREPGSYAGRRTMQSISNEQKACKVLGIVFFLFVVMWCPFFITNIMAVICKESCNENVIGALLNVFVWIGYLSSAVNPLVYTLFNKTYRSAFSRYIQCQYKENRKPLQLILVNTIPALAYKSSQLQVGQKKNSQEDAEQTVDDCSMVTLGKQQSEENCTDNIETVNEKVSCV

[5] = biological target: 5-hydroxytryptamine receptor 1B (Rattus norvegicus, UniProt P28564)
Sequence of 5-hydroxytryptamine receptor 1B (P28564 whole entry): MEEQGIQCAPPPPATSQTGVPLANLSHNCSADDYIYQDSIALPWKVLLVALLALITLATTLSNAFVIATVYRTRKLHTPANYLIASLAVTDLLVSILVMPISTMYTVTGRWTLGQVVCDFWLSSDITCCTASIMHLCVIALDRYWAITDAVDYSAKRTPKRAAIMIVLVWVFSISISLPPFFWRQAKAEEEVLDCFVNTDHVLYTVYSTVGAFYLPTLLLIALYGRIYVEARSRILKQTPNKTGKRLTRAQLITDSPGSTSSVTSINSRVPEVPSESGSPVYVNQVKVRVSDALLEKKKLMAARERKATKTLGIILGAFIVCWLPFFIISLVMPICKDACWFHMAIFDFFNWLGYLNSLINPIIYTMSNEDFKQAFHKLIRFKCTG

[6] = biological target: T2, 5-hydroxytryptamine receptor 2C (Sus scrofa, UniProt G7ZKZ7)
T2 sequence (G7ZKZ7 whole entry): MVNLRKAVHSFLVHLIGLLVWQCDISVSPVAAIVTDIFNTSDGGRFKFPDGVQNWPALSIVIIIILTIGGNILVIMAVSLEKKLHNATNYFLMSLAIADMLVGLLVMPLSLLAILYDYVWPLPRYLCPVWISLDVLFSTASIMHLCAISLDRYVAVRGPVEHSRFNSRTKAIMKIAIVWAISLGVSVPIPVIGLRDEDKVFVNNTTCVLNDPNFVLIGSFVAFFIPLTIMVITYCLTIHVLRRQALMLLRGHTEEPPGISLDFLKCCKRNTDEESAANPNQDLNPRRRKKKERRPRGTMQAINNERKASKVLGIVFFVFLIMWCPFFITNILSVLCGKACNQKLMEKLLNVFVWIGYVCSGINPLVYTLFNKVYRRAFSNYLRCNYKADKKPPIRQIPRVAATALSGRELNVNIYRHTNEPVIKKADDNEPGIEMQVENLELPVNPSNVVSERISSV

D(2) dopamine receptor = D(2) dopamine receptor (Rattus norvegicus, UniProt P61169)
Sequence of D(2) dopamine receptor (P61169 whole entry): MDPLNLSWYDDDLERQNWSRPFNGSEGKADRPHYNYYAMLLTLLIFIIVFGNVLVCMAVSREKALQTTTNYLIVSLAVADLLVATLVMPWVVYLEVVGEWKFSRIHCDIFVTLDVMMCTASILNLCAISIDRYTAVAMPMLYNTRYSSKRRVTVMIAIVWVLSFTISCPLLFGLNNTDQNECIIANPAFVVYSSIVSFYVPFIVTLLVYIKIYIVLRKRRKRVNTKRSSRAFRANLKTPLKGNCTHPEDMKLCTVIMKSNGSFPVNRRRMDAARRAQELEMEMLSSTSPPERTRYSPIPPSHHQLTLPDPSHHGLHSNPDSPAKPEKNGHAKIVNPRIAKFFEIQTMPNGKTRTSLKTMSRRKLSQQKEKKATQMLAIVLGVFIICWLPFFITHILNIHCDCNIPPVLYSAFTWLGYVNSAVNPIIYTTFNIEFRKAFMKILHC

D(1A) dopamine receptor = D(1A) dopamine receptor (Rattus norvegicus, UniProt P18901)
Sequence of D(1A) dopamine receptor (P18901 whole entry): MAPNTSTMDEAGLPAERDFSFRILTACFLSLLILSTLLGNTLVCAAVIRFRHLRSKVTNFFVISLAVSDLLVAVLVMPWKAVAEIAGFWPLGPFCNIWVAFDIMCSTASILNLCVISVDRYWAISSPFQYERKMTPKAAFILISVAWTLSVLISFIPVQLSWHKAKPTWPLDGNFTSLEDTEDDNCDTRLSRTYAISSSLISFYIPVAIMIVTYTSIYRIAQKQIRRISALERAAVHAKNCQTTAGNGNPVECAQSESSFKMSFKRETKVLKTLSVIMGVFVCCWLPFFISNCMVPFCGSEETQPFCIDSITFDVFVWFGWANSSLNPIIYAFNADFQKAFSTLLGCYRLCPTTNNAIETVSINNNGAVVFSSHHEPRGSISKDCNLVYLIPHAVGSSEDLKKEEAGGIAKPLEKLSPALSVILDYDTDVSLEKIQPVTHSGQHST

[7] = biological target: T3, Alpha-2C adrenergic receptor (Rattus norvegicus, UniProt P22086)
T3 sequence (P22086 whole entry): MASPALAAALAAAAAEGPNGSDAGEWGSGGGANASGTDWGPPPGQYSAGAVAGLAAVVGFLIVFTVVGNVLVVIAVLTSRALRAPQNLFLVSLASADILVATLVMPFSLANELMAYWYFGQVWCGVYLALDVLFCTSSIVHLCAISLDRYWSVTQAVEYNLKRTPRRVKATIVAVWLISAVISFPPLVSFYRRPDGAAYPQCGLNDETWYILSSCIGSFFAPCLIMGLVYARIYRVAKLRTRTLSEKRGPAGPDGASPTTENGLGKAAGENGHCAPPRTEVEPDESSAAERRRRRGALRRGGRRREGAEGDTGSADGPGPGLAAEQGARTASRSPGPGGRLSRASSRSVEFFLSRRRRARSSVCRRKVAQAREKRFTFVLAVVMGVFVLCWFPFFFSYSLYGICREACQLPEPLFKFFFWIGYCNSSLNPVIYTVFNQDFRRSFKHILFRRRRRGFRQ

Sequence of 5-hydroxytryptamine 1D receptor (Q8MI13 whole entry): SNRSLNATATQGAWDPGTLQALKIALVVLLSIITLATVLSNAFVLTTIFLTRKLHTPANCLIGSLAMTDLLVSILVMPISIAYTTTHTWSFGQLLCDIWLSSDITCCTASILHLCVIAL

Ki [1]: > 10 µM
Ki [2]: 3.4 µM
Ki [3]: > 10 µM
Ki (Histamine H1 receptor): 5 µM
Ki [4]: 0.0058 µM
Ki [5]: > 10 µM
Ki [6]: 0.12 µM
Ki (D(2) dopamine receptor): > 10 µM
Ki (D(1A) dopamine receptor): 9 µM
Ki [7]: 1 µM
Compound: CN(C)CCON=C(C=Cc1ccc(O)cc1)c1ccccc1F [NSC_6438382]
